Activity calls are given as the source filed them.

The values below come from ChEMBL document CHEMBL1201862, “PubChem BioAssay data set” (2004).

Test [1] in a line: Fluorescence-based cell-based high throughput dose response assay for inhibitors of the interaction of nucleotide-binding oligomerization domain containing 2 (NOD2) and the receptor-interacting serine-threonine kinase 2 (RIPK2). In kind it is functional. Conditions: Homo sapiens.
Test [2] has as its target T1, Polyadenylate-binding protein 1 (Homo sapiens, UniProt P11940). The test can be described thus: PABP1 MLLE–PAM2 interaction inhibitors, dose response, miRNA deadenylation inhibitor project, biochemical, fluorescence polarization, Cy5-PAM2 peptide, secondary (AID 602260). The format is functional. Conditions: read-out: IC50_Mean. On the technique in general: Fluorescence polarisation rises when a labelled molecule tumbles more slowly, as on binding a larger partner.

Test [3] deals with T1, Polyadenylate-binding protein 1. As to the kind of experiment: PABP1 MLLE–PAM2 binding inhibitor potency, dose response, biochemical, fluorescence polarization, FITC-PAM2 peptide (AID 602259). In kind it is functional. The settings on record: read-out: IC50_Mean.
Test [4] deals with Nuclear receptor subfamily 5 group A member 2 (Homo sapiens, UniProt O00482). The format is functional, cell-based.
A further test concerns the target Steroidogenic factor 1 (Homo sapiens, UniProt Q13285). As to the kind of experiment: Counterscreen for inverse agonists of the liver receptor homolog-1 (LRH-1; NR5A2): Luminescence-based cell-based high throughput dose response assay to identify inverse agonists of the Steroidogenic Factor 1 Nuclear Receptor (SF1; NR5A1). In kind it is functional. (A counterscreen serves to expose hits that act by an unwanted route or on another target.)

A short description of test [5]: StAR promoter reporter inhibition counter-screen, dose response, counter-screen for LRH-1 inverse agonist project, cell-based, luminescence, luciferase reporter (AID 651969). In kind it is functional.
For a further test, the target named is T2, Caspase-3 (Homo sapiens, UniProt P42574).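 Also: Dose-response selectivity test against caspase-3 for candidate inhibitors of sentrin-specific proteases (SENPs).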
T2 sequence (P42574 whole entry): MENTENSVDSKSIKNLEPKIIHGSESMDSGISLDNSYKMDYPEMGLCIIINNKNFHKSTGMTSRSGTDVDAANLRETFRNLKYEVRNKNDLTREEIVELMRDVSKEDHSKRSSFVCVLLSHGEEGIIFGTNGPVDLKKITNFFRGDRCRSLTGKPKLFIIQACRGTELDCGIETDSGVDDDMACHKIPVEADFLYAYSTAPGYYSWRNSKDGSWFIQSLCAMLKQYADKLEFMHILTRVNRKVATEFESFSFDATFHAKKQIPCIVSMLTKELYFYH
The format is functional.

Test [6] has as its target T3, Sentrin-specific protease 7 (Homo sapiens, UniProt Q9BQF6).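 Also: Luminescence-based dose-response confirmation of ultra-high-throughput screening hits, measuring inhibition of SENP7.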
T3 sequence (Q9BQF6 whole entry): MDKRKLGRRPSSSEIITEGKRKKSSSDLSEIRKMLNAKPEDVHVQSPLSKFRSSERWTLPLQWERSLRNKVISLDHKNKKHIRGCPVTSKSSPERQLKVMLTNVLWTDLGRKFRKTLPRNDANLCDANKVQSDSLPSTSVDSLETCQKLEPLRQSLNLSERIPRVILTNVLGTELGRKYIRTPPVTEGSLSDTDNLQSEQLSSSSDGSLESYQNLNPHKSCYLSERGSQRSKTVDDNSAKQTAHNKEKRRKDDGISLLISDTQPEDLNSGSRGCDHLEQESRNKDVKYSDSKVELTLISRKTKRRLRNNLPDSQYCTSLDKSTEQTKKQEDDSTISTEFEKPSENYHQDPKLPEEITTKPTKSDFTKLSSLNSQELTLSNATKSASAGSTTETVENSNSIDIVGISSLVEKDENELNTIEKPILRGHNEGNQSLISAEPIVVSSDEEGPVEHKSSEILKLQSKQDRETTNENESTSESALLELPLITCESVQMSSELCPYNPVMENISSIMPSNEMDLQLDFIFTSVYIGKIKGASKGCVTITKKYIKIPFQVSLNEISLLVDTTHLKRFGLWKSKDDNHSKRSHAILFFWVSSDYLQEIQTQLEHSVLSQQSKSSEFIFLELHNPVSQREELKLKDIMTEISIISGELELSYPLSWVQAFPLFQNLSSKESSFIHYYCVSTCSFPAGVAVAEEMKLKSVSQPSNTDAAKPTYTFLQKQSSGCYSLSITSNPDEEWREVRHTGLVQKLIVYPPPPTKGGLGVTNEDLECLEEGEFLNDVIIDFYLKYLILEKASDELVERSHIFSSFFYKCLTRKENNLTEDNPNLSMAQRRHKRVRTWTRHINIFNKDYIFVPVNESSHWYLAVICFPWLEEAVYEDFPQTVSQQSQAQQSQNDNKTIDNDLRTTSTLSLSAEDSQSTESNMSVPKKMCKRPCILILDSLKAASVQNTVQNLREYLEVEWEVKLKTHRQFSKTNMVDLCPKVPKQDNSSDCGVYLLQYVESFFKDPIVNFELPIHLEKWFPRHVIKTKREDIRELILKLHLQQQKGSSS
In kind it is functional.

The target of test [7] is T4, Sentrin-specific protease 6 (Homo sapiens, UniProt Q9GZR1).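 Also: Luminescence-based dose-response confirmatory assay of SENP6 inhibition, following up an ultra-high-throughput screen.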
T4 sequence (Q9GZR1 whole entry): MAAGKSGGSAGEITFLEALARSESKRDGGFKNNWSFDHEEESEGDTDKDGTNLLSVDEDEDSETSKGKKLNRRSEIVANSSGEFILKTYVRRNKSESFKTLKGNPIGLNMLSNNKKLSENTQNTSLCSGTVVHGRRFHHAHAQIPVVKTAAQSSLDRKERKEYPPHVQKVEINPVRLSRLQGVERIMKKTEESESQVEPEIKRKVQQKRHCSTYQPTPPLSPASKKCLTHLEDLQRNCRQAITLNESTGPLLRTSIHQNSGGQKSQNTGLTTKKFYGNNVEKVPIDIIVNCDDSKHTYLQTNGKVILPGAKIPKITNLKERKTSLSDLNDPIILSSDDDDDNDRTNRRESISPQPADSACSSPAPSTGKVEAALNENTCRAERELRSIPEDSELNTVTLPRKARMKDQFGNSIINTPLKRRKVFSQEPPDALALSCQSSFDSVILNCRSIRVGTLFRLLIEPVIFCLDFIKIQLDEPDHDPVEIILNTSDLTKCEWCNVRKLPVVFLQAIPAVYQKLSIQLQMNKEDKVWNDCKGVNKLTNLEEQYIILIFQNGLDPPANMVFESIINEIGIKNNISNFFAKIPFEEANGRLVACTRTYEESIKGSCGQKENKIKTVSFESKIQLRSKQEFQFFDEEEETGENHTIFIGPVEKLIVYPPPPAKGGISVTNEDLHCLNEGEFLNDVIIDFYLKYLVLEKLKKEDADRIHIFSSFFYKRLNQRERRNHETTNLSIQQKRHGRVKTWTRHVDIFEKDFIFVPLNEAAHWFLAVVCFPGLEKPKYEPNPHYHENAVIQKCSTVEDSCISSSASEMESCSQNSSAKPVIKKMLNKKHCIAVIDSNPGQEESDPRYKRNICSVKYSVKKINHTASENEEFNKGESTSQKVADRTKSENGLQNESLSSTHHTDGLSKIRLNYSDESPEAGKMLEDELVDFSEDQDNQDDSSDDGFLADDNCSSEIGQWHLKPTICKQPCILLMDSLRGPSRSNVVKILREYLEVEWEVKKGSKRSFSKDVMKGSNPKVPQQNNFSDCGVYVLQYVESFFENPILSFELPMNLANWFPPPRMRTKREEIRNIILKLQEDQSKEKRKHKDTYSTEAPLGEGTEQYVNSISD
The format is functional.

In test [8] the target is T5, Sentrin-specific protease 8 (Homo sapiens, UniProt Q96LD8).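 Also: luminescence read-out of SENP8 inhibition, dose-response confirmation following an ultra-high-throughput screen.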
T5 sequence (Q96LD8 whole entry): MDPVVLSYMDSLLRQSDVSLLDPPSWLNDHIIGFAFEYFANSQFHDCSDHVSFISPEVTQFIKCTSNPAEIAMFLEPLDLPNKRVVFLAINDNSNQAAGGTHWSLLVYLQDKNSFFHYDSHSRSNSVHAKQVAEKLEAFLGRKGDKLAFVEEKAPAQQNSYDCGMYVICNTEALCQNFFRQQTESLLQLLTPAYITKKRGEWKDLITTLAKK
In kind it is functional.

The target in test [9] is Heat shock protein HSP 90-alpha (Homo sapiens, UniProt P07900). The format is functional, organism-based.
The target of test [10] is T6, Mitochondrial peptide methionine sulfoxide reductase (Bos taurus, UniProt P54149). The test can be described thus: Absorbance-based biochemical high throughput dose response assay for activators of Methionine sulfoxide reductase A (MsrA). In kind it is functional.
A further test addresses T7, Caspase-6 (Homo sapiens, UniProt P55212).
T7 sequence (P55212 whole entry): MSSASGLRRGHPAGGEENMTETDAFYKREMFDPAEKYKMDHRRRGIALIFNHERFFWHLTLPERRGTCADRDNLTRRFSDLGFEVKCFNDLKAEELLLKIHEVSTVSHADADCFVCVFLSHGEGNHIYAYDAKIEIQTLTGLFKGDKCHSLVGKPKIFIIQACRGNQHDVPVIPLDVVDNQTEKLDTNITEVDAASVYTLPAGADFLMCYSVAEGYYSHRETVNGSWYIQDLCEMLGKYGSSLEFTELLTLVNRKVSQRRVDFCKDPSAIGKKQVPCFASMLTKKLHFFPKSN
As to the kind of experiment: human caspase-6 inhibitors, dose response, biochemical, VEID-R110 fluorescence, cherry-pick (AID 720632).

Another test deals with Caspase-9 (Homo sapiens, UniProt P55211). The test can be described thus: caspase-9 enzyme inhibition, dose response, selectivity assay for caspase-6 inhibitor project, biochemical, fluorescence, plate reader, cherry-picked samples (AID 743293).
The next test deals with T8, Caspase-7 (Homo sapiens, UniProt P55210).
T8 sequence (P55210 whole entry): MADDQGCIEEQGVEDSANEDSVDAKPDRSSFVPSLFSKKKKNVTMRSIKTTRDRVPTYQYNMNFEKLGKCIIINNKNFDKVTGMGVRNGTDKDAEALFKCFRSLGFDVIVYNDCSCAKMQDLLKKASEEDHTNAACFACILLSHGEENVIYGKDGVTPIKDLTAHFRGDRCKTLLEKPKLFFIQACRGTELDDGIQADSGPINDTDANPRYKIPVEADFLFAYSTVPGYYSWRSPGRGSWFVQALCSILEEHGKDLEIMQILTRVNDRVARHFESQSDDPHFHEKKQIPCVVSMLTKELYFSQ
As to the kind of experiment: human caspase-7 inhibitors, dose response, selectivity assay for caspase-6 inhibitor project, biochemical, DEVD-R110 fluorescence, cherry-pick (AID 743295). The format is […].

The target in the next test is Caspase-8 (Homo sapiens, UniProt Q14790). As to the kind of experiment: caspase-8 inhibition counter-screen, dose response, selectivity assay for caspase-6 inhibitor project, biochemical, Z-IETD-R110 fluorescence, cherry-picked samples (AID 743294).
The target in test [11] is T9, ATP-dependent translocase ABCB1 (Homo sapiens, UniProt P08183). As to the kind of experiment: ABCG2 efflux pump inhibitor potency, dose response, Ig-MXP3 cells, JC-1, flow cytometry, set 2 (AID 504566).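 Also: flow cytometry median green fluorescence of retained JC-1 dye; potency of efflux pump inhibition measured as rising substrate retention.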 In kind it is functional. The settings on record: read-out: EC50_MICROM_. (In general: Flow cytometry measures light scatter and fluorescence of single cells or particles in a stream.)

Test [12] deals with T9, ATP-dependent translocase ABCB1. As to the kind of experiment: ABCB1 efflux inhibitor potency, dose response, Jurkat-DNR cells, JC-1, flow cytometry, set 2 (AID 504569).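 Also: potency of pump inhibitors that raise cellular JC-1 green fluorescence up to the nicardipine level.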 In kind it is functional. Conditions: read-out: EC50_MICROM_.
The target of test [13] is T6, Mitochondrial peptide methionine sulfoxide reductase. In kind it is functional.
Test [14] in a line: cytotoxicity in HPDE-C7 cells, cell-based, fluorescence, HTS (AID 430). In kind it is functional. Conditions: Homo sapiens.
A short description of test [15]: cytotoxicity in KRAS-transformed pancreatic duct cells, primary screen, cell-based, fluorescence, HTS (AID 431). The format is functional. Conditions: Homo sapiens.
Test [16] in a line: enhancers of respiration in Yfh1-depleted yeast, dose response, Friedreich's ataxia, plus single-dose screen (AID 1465).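 Also: yeast depleted of Yfh1p frataxin homolog grown on glycerol needing respiration; WST-1 tetrazolium dye reduction as measure of cellular dehydrogenase metabolic activity.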 In kind it is functional.
In test [17] the test system is Vero. As to the kind of experiment: cells. The settings on record: Chlorocebus sabaeus. In kind it is functional, cell-based.
Another test relates to H9c2. As to the kind of experiment: cells. The format is functional, cell-based. The settings on record: Rattus norvegicus, H9c2, Myocardium.
The subject of test [18] is Vero. As to the kind of experiment: cells. In kind it is functional, Chlorocebus sabaeus.
Test [19] has as its target Aryl hydrocarbon receptor (Homo sapiens, UniProt P35869). Conditions: Potency.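 Also: confirmatory quantitative high-throughput screen measuring activation of the AhR signaling pathway.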

T6 sequence (P54149 whole entry): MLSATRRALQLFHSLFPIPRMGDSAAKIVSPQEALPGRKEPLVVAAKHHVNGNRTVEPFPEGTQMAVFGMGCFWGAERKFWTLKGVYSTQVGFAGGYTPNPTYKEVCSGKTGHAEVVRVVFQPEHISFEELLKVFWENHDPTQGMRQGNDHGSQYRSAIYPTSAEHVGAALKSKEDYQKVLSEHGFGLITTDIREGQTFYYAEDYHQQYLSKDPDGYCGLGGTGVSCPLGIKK
T1 sequence (P11940 whole entry): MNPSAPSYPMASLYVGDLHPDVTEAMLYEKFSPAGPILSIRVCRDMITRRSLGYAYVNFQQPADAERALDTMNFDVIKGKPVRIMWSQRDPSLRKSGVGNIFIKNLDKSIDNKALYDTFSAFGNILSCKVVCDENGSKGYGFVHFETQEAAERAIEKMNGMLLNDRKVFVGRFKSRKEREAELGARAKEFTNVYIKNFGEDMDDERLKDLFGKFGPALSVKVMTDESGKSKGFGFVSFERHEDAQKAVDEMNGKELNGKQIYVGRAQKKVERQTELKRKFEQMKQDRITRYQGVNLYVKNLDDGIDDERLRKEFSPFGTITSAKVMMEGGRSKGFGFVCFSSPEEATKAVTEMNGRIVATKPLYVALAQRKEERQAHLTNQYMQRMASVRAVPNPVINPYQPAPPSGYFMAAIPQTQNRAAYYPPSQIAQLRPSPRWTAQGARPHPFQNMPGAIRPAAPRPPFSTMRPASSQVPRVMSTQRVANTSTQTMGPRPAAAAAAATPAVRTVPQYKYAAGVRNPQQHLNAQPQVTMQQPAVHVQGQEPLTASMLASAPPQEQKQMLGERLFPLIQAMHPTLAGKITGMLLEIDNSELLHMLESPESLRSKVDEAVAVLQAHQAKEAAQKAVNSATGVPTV
T9 sequence (P08183 whole entry): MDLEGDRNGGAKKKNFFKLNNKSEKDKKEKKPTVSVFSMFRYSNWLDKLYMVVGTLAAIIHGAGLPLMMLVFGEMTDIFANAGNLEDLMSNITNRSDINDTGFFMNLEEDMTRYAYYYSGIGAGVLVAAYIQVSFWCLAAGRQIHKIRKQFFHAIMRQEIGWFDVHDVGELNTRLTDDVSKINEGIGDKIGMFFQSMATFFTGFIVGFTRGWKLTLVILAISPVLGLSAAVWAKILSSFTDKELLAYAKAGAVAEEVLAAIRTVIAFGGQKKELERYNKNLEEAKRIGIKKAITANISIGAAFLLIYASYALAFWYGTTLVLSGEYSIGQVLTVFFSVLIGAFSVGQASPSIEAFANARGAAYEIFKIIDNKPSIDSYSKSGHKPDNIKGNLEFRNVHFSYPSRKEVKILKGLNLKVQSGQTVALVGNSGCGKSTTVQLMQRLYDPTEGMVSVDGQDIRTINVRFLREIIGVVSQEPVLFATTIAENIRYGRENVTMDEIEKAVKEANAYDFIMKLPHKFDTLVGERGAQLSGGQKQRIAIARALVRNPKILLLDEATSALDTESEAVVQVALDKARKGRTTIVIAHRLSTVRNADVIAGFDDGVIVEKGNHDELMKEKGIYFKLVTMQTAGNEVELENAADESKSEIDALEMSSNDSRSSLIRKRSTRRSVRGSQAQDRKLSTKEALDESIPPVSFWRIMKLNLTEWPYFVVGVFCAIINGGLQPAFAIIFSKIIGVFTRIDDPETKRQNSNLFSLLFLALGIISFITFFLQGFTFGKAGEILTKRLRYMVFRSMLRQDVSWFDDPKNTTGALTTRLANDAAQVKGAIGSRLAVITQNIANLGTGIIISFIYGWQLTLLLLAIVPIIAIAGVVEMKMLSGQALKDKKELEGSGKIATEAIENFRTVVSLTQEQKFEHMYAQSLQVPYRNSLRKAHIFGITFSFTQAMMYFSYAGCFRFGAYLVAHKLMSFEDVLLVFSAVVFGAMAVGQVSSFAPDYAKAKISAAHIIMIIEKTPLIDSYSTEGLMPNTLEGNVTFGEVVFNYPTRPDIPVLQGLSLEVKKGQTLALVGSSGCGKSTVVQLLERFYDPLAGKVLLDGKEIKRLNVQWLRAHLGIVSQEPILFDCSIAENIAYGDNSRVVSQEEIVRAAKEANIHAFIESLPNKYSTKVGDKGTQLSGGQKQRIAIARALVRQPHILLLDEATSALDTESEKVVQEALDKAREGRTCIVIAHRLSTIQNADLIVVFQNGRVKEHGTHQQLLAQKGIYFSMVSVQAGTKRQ
Sequence of Caspase-9 (P55211 1-315 limits assumed): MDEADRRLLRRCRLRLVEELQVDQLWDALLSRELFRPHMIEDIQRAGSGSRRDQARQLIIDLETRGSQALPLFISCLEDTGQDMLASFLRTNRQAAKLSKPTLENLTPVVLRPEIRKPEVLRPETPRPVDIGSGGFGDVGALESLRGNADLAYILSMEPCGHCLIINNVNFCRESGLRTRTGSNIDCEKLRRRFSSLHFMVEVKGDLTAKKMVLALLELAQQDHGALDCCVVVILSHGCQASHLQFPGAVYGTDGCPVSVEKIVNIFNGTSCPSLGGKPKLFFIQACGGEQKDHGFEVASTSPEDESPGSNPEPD
Sequence of Caspase-9 (P55211 331-416 limits assumed): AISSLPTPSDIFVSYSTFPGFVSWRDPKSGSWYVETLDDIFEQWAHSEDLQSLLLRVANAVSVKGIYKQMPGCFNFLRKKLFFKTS
Sequence of Nuclear receptor subfamily 5 group A member 2 (O00482 whole entry): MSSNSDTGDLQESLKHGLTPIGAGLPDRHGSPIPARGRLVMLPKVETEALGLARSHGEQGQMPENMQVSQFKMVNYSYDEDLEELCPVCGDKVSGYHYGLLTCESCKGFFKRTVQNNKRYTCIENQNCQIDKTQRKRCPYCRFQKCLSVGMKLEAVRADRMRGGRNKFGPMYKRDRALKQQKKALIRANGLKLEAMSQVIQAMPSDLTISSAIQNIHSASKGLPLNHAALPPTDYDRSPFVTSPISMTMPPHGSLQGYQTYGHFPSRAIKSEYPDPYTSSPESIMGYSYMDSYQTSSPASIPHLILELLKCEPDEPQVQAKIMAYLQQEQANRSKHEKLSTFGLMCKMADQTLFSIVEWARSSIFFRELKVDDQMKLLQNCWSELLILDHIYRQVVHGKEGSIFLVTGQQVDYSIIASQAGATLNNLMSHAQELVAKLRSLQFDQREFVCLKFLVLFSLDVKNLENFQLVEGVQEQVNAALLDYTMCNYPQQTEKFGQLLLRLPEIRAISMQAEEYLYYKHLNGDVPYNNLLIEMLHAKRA
Sequence of Steroidogenic factor 1 (Q13285 whole entry): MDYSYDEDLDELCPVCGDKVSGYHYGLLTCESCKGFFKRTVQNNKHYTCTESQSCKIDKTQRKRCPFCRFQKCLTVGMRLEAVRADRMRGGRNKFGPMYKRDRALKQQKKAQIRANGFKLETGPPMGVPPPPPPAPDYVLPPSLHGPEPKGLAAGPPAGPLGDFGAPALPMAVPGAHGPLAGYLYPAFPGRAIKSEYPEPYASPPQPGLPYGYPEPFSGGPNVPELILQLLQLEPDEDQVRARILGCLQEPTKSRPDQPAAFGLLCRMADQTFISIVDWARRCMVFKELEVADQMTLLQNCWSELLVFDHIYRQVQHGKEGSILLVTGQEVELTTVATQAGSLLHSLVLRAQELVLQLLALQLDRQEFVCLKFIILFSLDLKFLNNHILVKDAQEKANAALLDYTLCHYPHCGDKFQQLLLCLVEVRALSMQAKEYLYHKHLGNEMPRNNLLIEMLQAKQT
Sequence of Aryl hydrocarbon receptor (P35869 whole entry): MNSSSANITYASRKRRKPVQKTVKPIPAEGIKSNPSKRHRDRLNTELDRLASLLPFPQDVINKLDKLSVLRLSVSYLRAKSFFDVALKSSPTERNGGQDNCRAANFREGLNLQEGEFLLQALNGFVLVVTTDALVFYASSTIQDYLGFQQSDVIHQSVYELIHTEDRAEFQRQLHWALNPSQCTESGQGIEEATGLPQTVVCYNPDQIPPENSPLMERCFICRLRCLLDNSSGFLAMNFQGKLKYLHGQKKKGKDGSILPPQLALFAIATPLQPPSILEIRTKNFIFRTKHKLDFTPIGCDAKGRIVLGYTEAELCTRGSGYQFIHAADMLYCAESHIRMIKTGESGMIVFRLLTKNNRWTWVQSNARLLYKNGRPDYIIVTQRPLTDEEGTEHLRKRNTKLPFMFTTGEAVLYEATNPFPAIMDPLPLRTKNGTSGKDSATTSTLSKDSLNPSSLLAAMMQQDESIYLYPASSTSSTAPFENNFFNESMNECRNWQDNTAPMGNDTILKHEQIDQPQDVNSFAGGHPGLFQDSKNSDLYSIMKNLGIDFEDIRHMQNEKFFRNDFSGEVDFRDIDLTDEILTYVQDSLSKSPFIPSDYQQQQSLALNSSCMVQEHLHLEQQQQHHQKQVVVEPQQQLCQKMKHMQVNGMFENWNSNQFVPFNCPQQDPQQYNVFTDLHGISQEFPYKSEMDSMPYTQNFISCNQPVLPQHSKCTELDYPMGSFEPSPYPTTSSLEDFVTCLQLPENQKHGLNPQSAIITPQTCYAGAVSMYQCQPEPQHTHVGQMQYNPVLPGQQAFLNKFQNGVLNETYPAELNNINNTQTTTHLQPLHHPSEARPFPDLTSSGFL
Sequence of Caspase-8 (Q14790 217-374 limits assumed): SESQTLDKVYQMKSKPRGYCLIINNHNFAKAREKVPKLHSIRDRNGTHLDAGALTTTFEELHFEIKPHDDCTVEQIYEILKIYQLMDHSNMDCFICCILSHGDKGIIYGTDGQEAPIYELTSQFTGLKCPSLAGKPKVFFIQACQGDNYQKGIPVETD
Sequence of Caspase-8 (Q14790 385-479 limits assumed): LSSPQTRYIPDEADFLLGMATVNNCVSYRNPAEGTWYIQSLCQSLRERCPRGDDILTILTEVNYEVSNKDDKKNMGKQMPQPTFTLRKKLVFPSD

Consider `COc1ccc(C2=CC(=O)N(Nc3ccccc3)C2=O)cc1`, for which the IC50 in [1] was 4.21 µM (active).
For `O=C(CSc1nnc(CNC(=O)c2ccccc2F)o1)Nc1ccc2c(c1)OCCO2`, the IC50 is > 66 µM (inactive) in test [2]; > 66 µM (inactive) in test [3]; 17.6 µM (inactive) in test [4]; 1.56 µM (active) at Steroidogenic factor 1; 35.9 µM (inactive) in test [5].
As to `COc1ccccc1NC(=O)COC(=O)c1ccc([N+](=O)[O-])s1`, the IC50 was 11.5 µM (active) at Caspase-3, 7.35 µM (active) in test [6], 4.94 µM (active) in [7] and 3.83 µM (active) in test [8]. In addition, the AC50 in test [9] was 6.12 µM (active); at Caspase-6, 1.95 µM (active); on Caspase-9, 23.7 µM (active); on Caspase-7 it was 16.4 µM (active); at Caspase-8, 22 µM (active). Further, in test [10], the EC50 is 39.4 µM (inactive).
Regarding `O=C(c1ccco1)N1CCN(c2cc(-c3ccccc3)nc3cc(-c4ccc(F)cc4)nn23)CC1`, the EC50 in [11] is 1.05 µM (active); in [12] it was 3.4 µM (active).
On to `Cc1ccccc1/C=N/n1c(S)nnc1C1CCCCC1`, for which the IC50 in test [13] was 155 µM (inactive).
On to `COc1cc(/C=C/C(=O)CC(=O)/C=C/c2ccc(O)c(OC)c2)ccc1O` [CURCUMIN], for which the values for the EC50 in test [14], in test [15] and in [16] were 13.1 µM (active), 6.97 µM (active) and > 100 µM (active), respectively. The IC50 was > 25 µM (active) with Vero [17] and > 79 µM (inactive) in the test on H9c2. Further, the CC50 with Vero [18] is 19.5 µM (active); in the test with Vero [18] (Chlorocebus sabaeus, Vero), 19.9 µM (active). Moreover, the AC50 in test [19] was 56.2 µM (inconclusive).

Usually AC50 stands for the midpoint of the concentration-response curve, whichever way the signal moves. Broadly, the CC50 is the concentration giving 50% cytotoxicity.
